Patent publication US8501953B2, “PKM2 modulators for use in the treatment of cancer” (Agios Pharmaceuticals, Inc, priority 2009, dated 2013)

target: PKM2 (Homo sapiens, UniProt P14618); assay: PKM2 Assay (activation; LDH-coupled, NADH absorbance at 340 nm); assay type: biochemical; settings: PKM2 50 ng/well, ADP 0.7 mM, PEP 0.15 mM, no FBP in Reaction Mix
Description: • PKM2 stock enzyme solution was diluted in Reaction Buffer • 2 μL of compound was added into each well first, and then 180 μL of the Reaction Mix was added. • Reaction mixture with compound (without ADP) were incubated for 30 minutes at 4° C. • Plates were re-equilibrated to room temperature prior to adding 20 μL ADP to initiate the reaction. • Reaction progress was measured as changes in absorbance at 340 nm wavelength at room temperature (25° C.) Reaction Mix: PKM2 (50 ng/well), ADP (0.7 mM), PEP (0.15 mM), NADH (180 μM), LDH (2 units) in Reaction Buffer Reaction Buffer: 100 mM KCl, 50 mM Tris pH 7.5, 5 mM MgCl2, 1 mM DTT, 0.03% BSA.

Sequence of PKM2 (P14618 whole entry): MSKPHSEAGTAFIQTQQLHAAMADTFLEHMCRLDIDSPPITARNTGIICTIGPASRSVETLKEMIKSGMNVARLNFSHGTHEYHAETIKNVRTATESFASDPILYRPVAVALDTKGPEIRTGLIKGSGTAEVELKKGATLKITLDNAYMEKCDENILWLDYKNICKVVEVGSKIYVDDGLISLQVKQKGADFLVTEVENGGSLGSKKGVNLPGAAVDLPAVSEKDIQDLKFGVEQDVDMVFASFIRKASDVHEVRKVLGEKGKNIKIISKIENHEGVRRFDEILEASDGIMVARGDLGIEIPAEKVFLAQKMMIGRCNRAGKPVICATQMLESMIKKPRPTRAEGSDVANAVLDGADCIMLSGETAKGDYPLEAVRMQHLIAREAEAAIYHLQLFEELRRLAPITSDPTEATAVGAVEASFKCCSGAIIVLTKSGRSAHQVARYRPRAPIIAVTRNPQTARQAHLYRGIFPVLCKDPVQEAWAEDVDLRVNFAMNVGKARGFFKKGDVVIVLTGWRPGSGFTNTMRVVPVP

COc1ccc(C)cc1S(=O)(=O)Nc1cc2c(cc1Cl)oc(=O)n2C and COc1ccc(Cl)cc1S(=O)(=O)Nc1cc2c(cc1Cl)oc(=O)n2C fall in the same range of AC50: 1 to 10 µM for the first, 1 to 10 µM for the second.

COc1ccc(Cl)cc1S(=O)(=O)N1CCN(S(=O)(=O)c2cc3c(cc2F)oc(=O)n3C)CC1 and Cn1c(=O)oc2cc(F)c(S(=O)(=O)N3CCN(S(=O)(=O)c4c(F)cccc4F)CC3)cc21 cannot be ordered by AC50: less than 1 µM for the first, less than 1 µM for the second.

First: Cn1c(=O)oc2cc(F)c(S(=O)(=O)Nc3ccc(Cl)cc3)cc21
Second: Cn1c(=O)oc2cc(Cl)c(S(=O)(=O)Nc3ccc(Cl)cc3)cc21
The AC50 of the first is lower: 1 to 10 µM for the first, 10 to 50 µM for the second.

Cc1cc2c(cc1S(=O)(=O)N1CCN(c3ccc(C(F)(F)F)cn3)CC1)oc(=O)n2C and Cc1cc2c(cc1S(=O)(=O)N1CCN(Cc3ccccc3)CC1)oc(=O)n2C fall in the same range of AC50: 1 to 10 µM for the first, 1 to 10 µM for the second.

Compared with Cc1cc2oc(=O)n(C)c2cc1S(=O)(=O)Nc1ccc(F)cc1, Cc1cc2c(cc1S(=O)(=O)Nc1ccc(F)cc1)oc(=O)n2C is higher in AC50: less than 1 µM for the first, 1 to 10 µM for the second.

Compared with Cc1cc2sc(=O)sc2cc1S(=O)(=O)Nc1ccccc1, Cn1c(=O)oc2cc(F)c(S(=O)(=O)Nc3ccccc3)cc21 [drawing 242] is higher in AC50: less than 1 µM for the first, 1 to 10 µM for the second.

O=c1oc2cc(S(=O)(=O)Nc3ccc(F)cc3)ccc2n1CCc1ccccc1 and CCn1c(=O)oc2cc(S(=O)(=O)Nc3ccc(F)cc3)ccc21 fall in the same range of AC50: 1 to 10 µM for the first, 1 to 10 µM for the second.

COc1ccc(Cl)cc1NS(=O)(=O)c1cc2oc(=O)n(C)c2cc1C and CCn1c(=O)oc2cc(S(=O)(=O)Nc3cc(Cl)ccc3OC)c(C)cc21 fall in the same range of AC50: 1 to 10 µM for the first, 1 to 10 µM for the second.

First: Cn1c(=O)oc2cc(F)c(S(=O)(=O)Nc3ccccc3)cc21 [drawing 56]
Second: Cn1c(=O)oc2cc(Cl)c(S(=O)(=O)Nc3ccccc3F)cc21
The AC50 of the first is lower: less than 1 µM for the first, 1 to 10 µM for the second.

CCn1c(=O)oc2cc(S(=O)(=O)Nc3ccccc3Cl)ccc21 and Cn1c(=O)oc2cc(Cl)c(S(=O)(=O)Nc3ccccc3Cl)cc21 fall in the same range of AC50: 1 to 10 µM for the first, 1 to 10 µM for the second.

First: Cc1cc2sc(=O)sc2cc1S(=O)(=O)NC1CCCCC1
Second: Cn1c(=O)oc2cc(S(=O)(=O)NC3CCCCC3)ccc21
The AC50 of the first is higher: 10 to 50 µM for the first, 1 to 10 µM for the second.

Cn1c(=O)oc2cc(S(=O)(=O)Nc3c(F)cccc3F)ccc21 and Cn1c(=O)oc2cc(S(=O)(=O)Nc3ccc(Cl)c(F)c3)ccc21 fall in the same range of AC50: 1 to 10 µM for the first, 1 to 10 µM for the second.

First: Cc1ccc(COC(=O)N2CCN(S(=O)(=O)c3cc4oc(=O)n(C)c4cc3C)CC2)cc1
Second: Cc1cc2c(cc1S(=O)(=O)N1CCN(C(=O)COc3ccc(-n4cnnn4)cc3)CC1)oc(=O)n2C
The AC50 of the first is lower: 1 to 10 µM for the first, 10 to 50 µM for the second.

COc1cccc(S(=O)(=O)Nc2cc3c(cc2C)oc(=O)n3C)c1 and CC(=O)c1ccc(S(=O)(=O)Nc2cc3c(cc2C)oc(=O)n3C)cc1 fall in the same range of AC50: 10 to 50 µM for the first, 10 to 50 µM for the second.

Cc1cc(C)cc(NS(=O)(=O)c2ccc3c(c2)sc(=O)n3C)c1 and Cc1cc(C)cc(NS(=O)(=O)c2ccc3oc(=O)n(C)c3c2)c1 cannot be ordered by AC50: less than 1 µM for the first, less than 1 µM for the second.

COc1ccc(Cl)cc1S(=O)(=O)Nc1ccc2sc(=O)n(C)c2c1 and COc1ccc(Cl)cc1S(=O)(=O)Nc1ccc2c(c1)sc(=O)n2C fall in the same range of AC50: 10 to 50 µM for the first, 10 to 50 µM for the second.

COCCn1c(=O)oc2cc(S(=O)(=O)Nc3ccc(F)c(Cl)c3)cc(C)c21 and Cc1cc(S(=O)(=O)Nc2ccc(F)c(Cl)c2)cc2oc(=O)n(C)c12 cannot be ordered by AC50: less than 1 µM for the first, less than 1 µM for the second.

Compared with CCn1c(=O)sc2ccc(NS(=O)(=O)c3c(F)cccc3F)cc21, Cn1c(=O)sc2cc(S(=O)(=O)Nc3ccc(F)c(Cl)c3)ccc21 is lower in AC50: 1 to 10 µM for the first, less than 1 µM for the second.

Cc1cc2oc(=O)n(C)c2cc1S(=O)(=O)Nc1ccc(F)c(Cl)c1 and Cc1cc(NS(=O)(=O)c2cc3c(cc2C)oc(=O)n3C)ccc1Cl cannot be ordered by AC50: less than 1 µM for the first, less than 1 µM for the second.

Compared with CC(=O)Nc1ccc(NS(=O)(=O)c2cc3c(cc2C)oc(=O)n3C)cc1, Cc1ccc(NS(=O)(=O)c2cc3c(cc2C)oc(=O)n3C)cc1F is lower in AC50: greater than 100 µM for the first, less than 1 µM for the second.

Cn1c(=O)sc2cc(S(=O)(=O)N3CCN(S(=O)(=O)c4ccccc4)CC3)ccc21 and Cn1c(=O)sc2cc(S(=O)(=O)N3CCCN(S(=O)(=O)c4c(F)cccc4F)CC3)ccc21 fall in the same range of AC50: 1 to 10 µM for the first, 1 to 10 µM for the second.

O=c1[nH]c2cc(NS(=O)(=O)c3ccccc3)ccc2s1 and O=c1[nH]c2cc(NS(=O)(=O)c3cccs3)ccc2s1 fall in the same range of AC50: 10 to 50 µM for the first, 10 to 50 µM for the second.

First: COc1cc(NS(=O)(=O)c2cc3c(cc2C)oc(=O)n3C)cc(OC)c1
Second: Cc1cc(C)cc(NS(=O)(=O)c2cc3c(cc2C)oc(=O)n3C)c1
The AC50 of the first is higher: 1 to 10 µM for the first, less than 1 µM for the second.

Cc1cc2oc(=O)n(C)c2cc1NS(=O)(=O)c1c(F)cccc1F and Cn1c(=O)oc2cc(F)c(NS(=O)(=O)c3c(F)cccc3F)cc21 cannot be ordered by AC50: greater than 100 µM for the first, greater than 100 µM for the second.

Compared with COc1ccc(S(=O)(=O)Nc2cc3[nH]c(=O)oc3cc2Cl)cc1OC, COc1ccc(S(=O)(=O)Nc2cc3c(cc2Cl)oc(=O)n3C)cc1OC is lower in AC50: greater than 100 µM for the first, 10 to 50 µM for the second.

Compared with Cc1cc2c(cc1S(=O)(=O)Nc1ccccc1Cl)oc(=O)n2C, Cc1cc2oc(=O)n(C)c2cc1NS(=O)(=O)c1ccccc1Cl is higher in AC50: 1 to 10 µM for the first, 10 to 50 µM for the second.

Cc1cc2oc(=O)n(C)c2cc1NS(=O)(=O)c1cc(Cl)ccc1Cl and COc1ccc(Cl)cc1S(=O)(=O)Nc1cc2c(cc1F)oc(=O)n2C fall in the same range of AC50: 10 to 50 µM for the first, 10 to 50 µM for the second.

Compared with Cc1cc2c(cc1NS(=O)(=O)c1cccs1)oc(=O)n2C, O=c1[nH]c2cc(NS(=O)(=O)c3cccs3)c(Cl)cc2o1 is lower in AC50: 10 to 50 µM for the first, 1 to 10 µM for the second.

First: Cn1c(=O)oc2cc(S(=O)(=O)N3CCN(S(=O)(=O)c4c(F)cccc4F)CC3)ccc21
Second: Cn1c(=O)oc2cc(S(=O)(=O)N3CCN(S(=O)(=O)c4ccc5c(c4)OCCO5)CC3)ccc21
The AC50 of the first is higher: 1 to 10 µM for the first, less than 1 µM for the second.

First: Cn1c(=O)oc2cc(S(=O)(=O)Nc3ccc4c(c3)OCO4)ccc21
Second: Cn1c(=O)oc2cc(S(=O)(=O)Nc3ccc4c(c3)OCCO4)ccc21
The AC50 of the first is lower: less than 1 µM for the first, 1 to 10 µM for the second.

Cn1c(=O)oc2cc(S(=O)(=O)Nc3cc(F)cc(F)c3)ccc21 and Cc1cc2oc(=O)n(C)c2cc1S(=O)(=O)Nc1cc(F)cc(F)c1 fall in the same range of AC50: 1 to 10 µM for the first, 1 to 10 µM for the second.

First: Cc1cc2sc(=O)sc2cc1S(=O)(=O)Nc1ncc(C(F)(F)F)cc1Cl
Second: O=c1sc2ccc(S(=O)(=O)Nc3ccc(F)cc3)cc2s1
The AC50 of the first is lower: 1 to 10 µM for the first, 10 to 50 µM for the second.

Cc1cc(C)cc(NS(=O)(=O)c2cc3c(cc2Cl)oc(=O)n3C)c1 and Cc1cc(C)cc(NS(=O)(=O)c2cc3c(cc2F)oc(=O)n3C)c1 cannot be ordered by AC50: less than 1 µM for the first, less than 1 µM for the second.

First: CCn1c(=O)oc2ccc(NS(=O)(=O)c3cccs3)cc21
Second: CCn1c(=O)oc2cc(Cl)c(S(=O)(=O)Nc3ccc(Cl)cc3)cc21
The AC50 of the first is higher: greater than 100 µM for the first, 1 to 10 µM for the second.

COc1ccc(C)cc1S(=O)(=O)Nc1ccc2sc(=O)n(C)c2c1 and CCC(C)n1c(=O)sc2ccc(NS(=O)(=O)c3cc(Cl)ccc3OC)cc21 (stereo not drawn) fall in the same range of AC50: 1 to 10 µM for the first, 1 to 10 µM for the second.

Compared with Cn1c(=O)sc2cc(S(=O)(=O)Nc3cccc4ncccc34)ccc21, Cn1c(=O)oc2cc(Cl)c(NS(=O)(=O)c3cccc(Cl)c3)cc21 is higher in AC50: 1 to 10 µM for the first, 10 to 50 µM for the second.

Compared with Cn1c(=O)oc2cc(Cl)c(S(=O)(=O)Nc3ccc(F)cc3)cc21, Cc1cc2oc(=O)n(C)c2cc1S(=O)(=O)Nc1cccc(Cl)c1 is lower in AC50: 1 to 10 µM for the first, less than 1 µM for the second.

Compared with COc1ccc(Cl)cc1S(=O)(=O)Nc1ccc2sc(=O)[nH]c2c1, Cc1cc(C)cc(NS(=O)(=O)c2cc3oc(=O)n(C)c3cc2F)c1 is lower in AC50: 1 to 10 µM for the first, less than 1 µM for the second.

First: Cc1cc(C)cc(NS(=O)(=O)c2ccc3c(c2)oc(=O)n3Cc2ccccc2)c1
Second: Cn1c(=O)oc2cc(S(=O)(=O)NC(C)(C)C)ccc21
The AC50 of the first is lower: 1 to 10 µM for the first, greater than 100 µM for the second.
